# Reference: patent publication US6737383B1, “Herbicidal oxadiazolidines” (priority 1999, dated 2004)
# Key:
# corn = assay: Test B pre/postemergence corn; assay type: in vivo, Zea mays
# In short: (§1)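 Herbicidal effect was estimated by eye on a ten-point control scale after plants spent twelve to sixteen days in a greenhouse following soil or foliar treatment. Foliar sprays targeted plants at one to four leaves; all doses were formulated in a non-phytotoxic solvent with surfactant.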
# pigweed = assay: Test B pre/postemergence pigweed; assay type: in vivo, Amaranthus retroflexus
# In short: as §1
# duck salad = assay: Test B flood test duck salad; assay type: in vivo, Heteranthera limosa
# In short: (§2)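 Flood test on plants grown to the 2-leaf stage; treated plants kept in greenhouse twelve to sixteen days, then visually rated against controls on a 0 (no effect) to 10 (complete control) scale.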
# surinam grass = assay: Test B pre/postemergence surinam grass; assay type: in vivo, Brachiaria decumbens
# In short: as §1
# wild oat = assay: Test B pre/postemergence wild oat; assay type: in vivo, Avena fatua
# In short: as §1
# bedstraw = assay: Test B pre/postemergence bedstraw; assay type: in vivo, Galium aparine
# In short: as §1
# soybean = assay: Test B pre/postemergence soybean; assay type: in vivo, Glycine max
# In short: as §1
# smallflower flatsedge = assay: Test B flood test smallflower flatsedge; assay type: in vivo, Cyperus difformis
# In short: as §2
# rape = assay: Test B pre/postemergence rape; assay type: in vivo, Brassica napus
# In short: as §1
# sugar beet = assay: Test B pre/postemergence sugar beet; assay type: in vivo, Beta vulgaris
# In short: as §1
# velvetleaf = assay: Test B pre/postemergence velvetleaf; assay type: in vivo, Abutilon theophrasti
# In short: as §1
# wheat = assay: Test B pre/postemergence wheat; assay type: in vivo, Triticum aestivum
# In short: as §1
# rice = assay: Test B flood test rice; assay type: in vivo, Oryza sativa
# In short: as §2
# crabgrass = assay: Test B pre/postemergence crabgrass; assay type: in vivo, Digitaria sanguinalis
# In short: as §1
# purple nutsedge = assay: Test B pre/postemergence purple nutsedge; assay type: in vivo, Cyperus rotundus
# In short: as §1
# blackgrass = assay: Test B pre/postemergence blackgrass; assay type: in vivo, Alopecurus myosuroides
# In short: as §1
# [1] = Preemergence, Rate 62 g/ha, scale of 0 to 10 where 0 is no effect and 10 is complete control
# [2] = Preemergence, Rate 125 g/ha, 0 is no effect, 10 is complete control
# [3] = Preemergence, Rate 250 g/ha, scale 0 to 10, 0 is no effect, 10 is complete control
# [4] = Preemergence, Rate 500 g/ha, scale 0 to 10 (0 no effect, 10 complete control)
# [5] = Rate 62 g/ha, Postemergence, scale of 0 to 10 where 0 is no effect and 10 is complete control
# [6] = Rate 125 g/ha, Postemergence, scale 0 to 10
# [7] = Rate 500 g/ha, Postemergence, scale 0 to 10
# [8] = Rate 62 g/ha, headed Pre-emergence (flood test species), scale 0 to 10 (0 no effect, 10 complete control)
# [9] = Rate 125 g/ha, Pre-emergence, flood test species, scale 0 to 10 where 0 is no effect and 10 is complete control
# [10] = Rate 250 g/ha, Pre-emergence, flood-test species, scale 0 to 10, 0 is no effect, 10 is complete control
# [11] = Rate 500 g/ha, headed Pre-emergence (flood test species), scale 0 to 10 (0 no effect, 10 complete control)
smiles,measurement,setting,value
Cc1nc(C)c(Cn2c(=O)on(C(=O)N(c3ccc(Cl)cc3)C(C)C)c2=O)s1 [Compound 191],Corn plant response rating,corn; [1],0
same,Corn plant response rating (0 to 10 scale),corn; [2],0
same,Corn plant response rating,corn; [3],0
same,Corn plant response rating,corn; [4],0
same,Corn plant response rating,corn; [5],0
same,Corn plant response rating,corn; [6],0
same,"Plant response rating (0 to 10; 0 is no effect, 10 is complete control), Corn","corn; Rate 250 g/ha, Postemergence",0
same,Corn plant response rating,corn; [7],0
same,Redroot pigweed plant response rating,pigweed; [1],0
same,Redroot pigweed plant response rating (0 to 10 scale),pigweed; [2],0
same,Redroot pigweed plant response rating,pigweed; [3],1
same,Redroot pigweed plant response rating,pigweed; [4],6
same,Redroot pigweed plant response rating,pigweed; [5],0
same,Redroot pigweed plant response rating,pigweed; [6],0
same,"Plant response rating (0 to 10; 0 is no effect, 10 is complete control), Redroot pigweed","pigweed; Rate 250 g/ha, Postemergence",0
same,Redroot pigweed plant response rating,pigweed; [7],0
same,Ducksalad plant response rating,duck salad; [8],0
same,Ducksalad plant response rating,duck salad; [9],0
same,Ducksalad plant response rating,duck salad; [10],0
same,"Plant response rating, Ducksalad",duck salad; [11],0
same,B. signalgrass plant response rating,surinam grass; [1],0
same,B. signalgrass plant response rating (0 to 10 scale),surinam grass; [2],0
same,B. signalgrass plant response rating,surinam grass; [3],0
same,B. signalgrass plant response rating,surinam grass; [4],3
same,B. signalgrass plant response rating,surinam grass; [5],0
same,B. signalgrass plant response rating,"surinam grass; Rate 125 g/ha, Postemergence, scale 0 (no effect) to 10 (complete control)",0
same,"Plant response rating, B. signalgrass","surinam grass; Rate 250 g/ha, Postemergence, scale 0 to 10, 0 is no effect, 10 is complete control",0
same,B. signalgrass plant response rating,"surinam grass; Rate 500 g/ha, Postemergence, scale 0 to 10, 0 no effect, 10 complete control",1
same,Wild oats plant response rating,wild oat; [3],3
same,Wild oats plant response rating,wild oat; [4],7
same,Wild oats plant response rating,wild oat; [5],0
same,Wild oats plant response rating,wild oat; [6],0
same,"Plant response rating (0 to 10; 0 is no effect, 10 is complete control), Wild oats","wild oat; Rate 250 g/ha, Postemergence",0
same,Bedstraw plant response rating,bedstraw; [1],0
same,Bedstraw plant response rating (0 to 10 scale),bedstraw; [2],0
same,Bedstraw plant response rating,bedstraw; [3],0
same,Bedstraw plant response rating,bedstraw; [4],0
same,Bedstraw plant response rating,bedstraw; [5],0
same,Bedstraw plant response rating,bedstraw; [6],0
same,"Plant response rating (0 to 10; 0 is no effect, 10 is complete control), Bedstraw","bedstraw; Rate 250 g/ha, Postemergence",0
same,Bedstraw plant response rating,bedstraw; [7],0
same,Soybean plant response rating,soybean; [1],0
same,Soybean plant response rating (0 to 10 scale),soybean; [2],0
same,Soybean plant response rating,soybean; [3],0
same,Soybean plant response rating,soybean; [4],0
same,Soybean plant response rating,soybean; [5],3
same,Soybean plant response rating,soybean; [6],3
same,"Plant response rating (0 to 10; 0 is no effect, 10 is complete control), Soybean","soybean; Rate 250 g/ha, Postemergence",3
same,Soybean plant response rating,soybean; [7],4
same,S. Flatsedge plant response rating,smallflower flatsedge; [8],0
same,S. Flatsedge plant response rating,smallflower flatsedge; [9],0
same,S. Flatsedge plant response rating,smallflower flatsedge; [10],0
same,S. Flatsedge plant response rating,"smallflower flatsedge; Rate 500 g/ha, Pre-emergence, flood test species, scale 0 to 10 (0 no effect, 10 complete control)",0
same,Rape plant response rating,rape; [1],0
same,Rape plant response rating (0 to 10 scale),rape; [2],0
same,Rape plant response rating,rape; [3],0
same,Rape plant response rating,rape; [4],0
same,Rape plant response rating,rape; [5],0
same,Rape plant response rating,rape; [6],0
same,"Plant response rating (0 to 10; 0 is no effect, 10 is complete control), Rape","rape; Rate 250 g/ha, Postemergence",0
same,Rape plant response rating,rape; [7],0
same,Sugarbeets plant response rating,sugar beet; [1],0
same,Sugarbeets plant response rating (0 to 10 scale),sugar beet; [2],0
same,Sugarbeets plant response rating,sugar beet; [3],0
same,Sugarbeets plant response rating,sugar beet; [4],0
same,Sugarbeets plant response rating,sugar beet; [5],0
same,Sugarbeets plant response rating,sugar beet; [6],0
same,"Plant response rating (0 to 10; 0 is no effect, 10 is complete control), Sugarbeets","sugar beet; Rate 250 g/ha, Postemergence",0
same,Sugarbeets plant response rating,sugar beet; [7],0
same,Velvetleaf plant response rating,velvetleaf; [1],0
same,Velvetleaf plant response rating,velvetleaf; [3],0
same,Velvetleaf plant response rating,velvetleaf; [4],0
same,Velvetleaf plant response rating,velvetleaf; [5],0
same,Velvetleaf plant response rating,velvetleaf; [6],0
same,"Plant response rating (0 to 10; 0 is no effect, 10 is complete control), Velvetleaf","velvetleaf; Rate 250 g/ha, Postemergence",2
same,Wheat plant response rating,wheat; [1],0
same,Wheat plant response rating,wheat; [3],0
same,Wheat plant response rating,wheat; [4],2
same,Wheat plant response rating,wheat; [5],0
same,Wheat plant response rating,wheat; [6],0
same,"Plant response rating (0 to 10; 0 is no effect, 10 is complete control), Wheat","wheat; Rate 250 g/ha, Postemergence",0
same,Rice plant response rating,rice; [8],0
same,Rice plant response rating,rice; [9],0
same,Rice plant response rating,rice; [10],0
same,"Plant response rating, Rice",rice; [11],0
same,Crabgrass plant response rating,crabgrass; [1],0
same,Crabgrass plant response rating (0 to 10 scale),crabgrass; [2],3
same,Crabgrass plant response rating,crabgrass; [3],8
same,Crabgrass plant response rating,crabgrass; [4],8
same,Crabgrass plant response rating,crabgrass; [5],2
same,Crabgrass plant response rating,crabgrass; [6],2
same,"Plant response rating (0 to 10; 0 is no effect, 10 is complete control), Crabgrass","crabgrass; Rate 250 g/ha, Postemergence",3
same,Crabgrass plant response rating,crabgrass; [7],6
same,Nutsedge plant response rating,purple nutsedge; [1],0
same,Nutsedge plant response rating (0 to 10 scale),purple nutsedge; [2],0
same,Nutsedge plant response rating,purple nutsedge; [3],0
same,Nutsedge plant response rating,purple nutsedge; [4],0
same,Nutsedge plant response rating,purple nutsedge; [5],0
same,Nutsedge plant response rating,purple nutsedge; [6],0
same,"Plant response rating (0 to 10; 0 is no effect, 10 is complete control), Nutsedge","purple nutsedge; Rate 250 g/ha, Postemergence",0
same,Nutsedge plant response rating,purple nutsedge; [7],0
same,Blackgrass plant response rating,blackgrass; [1],0
same,Blackgrass plant response rating (0 to 10 scale),blackgrass; [2],0
same,Blackgrass plant response rating,blackgrass; [3],4
same,Blackgrass plant response rating,blackgrass; [4],6
same,Blackgrass plant response rating,blackgrass; [5],0
same,Blackgrass plant response rating,blackgrass; [6],0
same,"Plant response rating (0 to 10; 0 is no effect, 10 is complete control), Blackgrass","blackgrass; Rate 250 g/ha, Postemergence",0
same,Blackgrass plant response rating,blackgrass; [7],3
